# Assay results: patent publication US20250099423A1, “PIPERAZINE-BASED AGONISTS OF LFA-1 AND VLA-4” (Texas Heart Institute, priority 2021, published 2025)
# Experiments:
# LFA-1 = molecular target: T1, LFA-1 (Homo sapiens, UniProt P05107+P20701); assay: Static cell adhesion assay, HSB cells on ICAM-1 (αLβ2/ICAM-1; LFA-1); assay type: cell-based; conditions: Dose 3 μM, compound and THI0349 at the same concentration; ratio >1 = more potent agonist
# T1 construct: The Jurkat (VCAM-1 assays) and HSB (ICAM-1 assays) cell lines were obtained from American Type Culture Collection; endogenous in cells; host or cells: HSB cells (ATCC)
# T1 sequence (P20701 26-1170): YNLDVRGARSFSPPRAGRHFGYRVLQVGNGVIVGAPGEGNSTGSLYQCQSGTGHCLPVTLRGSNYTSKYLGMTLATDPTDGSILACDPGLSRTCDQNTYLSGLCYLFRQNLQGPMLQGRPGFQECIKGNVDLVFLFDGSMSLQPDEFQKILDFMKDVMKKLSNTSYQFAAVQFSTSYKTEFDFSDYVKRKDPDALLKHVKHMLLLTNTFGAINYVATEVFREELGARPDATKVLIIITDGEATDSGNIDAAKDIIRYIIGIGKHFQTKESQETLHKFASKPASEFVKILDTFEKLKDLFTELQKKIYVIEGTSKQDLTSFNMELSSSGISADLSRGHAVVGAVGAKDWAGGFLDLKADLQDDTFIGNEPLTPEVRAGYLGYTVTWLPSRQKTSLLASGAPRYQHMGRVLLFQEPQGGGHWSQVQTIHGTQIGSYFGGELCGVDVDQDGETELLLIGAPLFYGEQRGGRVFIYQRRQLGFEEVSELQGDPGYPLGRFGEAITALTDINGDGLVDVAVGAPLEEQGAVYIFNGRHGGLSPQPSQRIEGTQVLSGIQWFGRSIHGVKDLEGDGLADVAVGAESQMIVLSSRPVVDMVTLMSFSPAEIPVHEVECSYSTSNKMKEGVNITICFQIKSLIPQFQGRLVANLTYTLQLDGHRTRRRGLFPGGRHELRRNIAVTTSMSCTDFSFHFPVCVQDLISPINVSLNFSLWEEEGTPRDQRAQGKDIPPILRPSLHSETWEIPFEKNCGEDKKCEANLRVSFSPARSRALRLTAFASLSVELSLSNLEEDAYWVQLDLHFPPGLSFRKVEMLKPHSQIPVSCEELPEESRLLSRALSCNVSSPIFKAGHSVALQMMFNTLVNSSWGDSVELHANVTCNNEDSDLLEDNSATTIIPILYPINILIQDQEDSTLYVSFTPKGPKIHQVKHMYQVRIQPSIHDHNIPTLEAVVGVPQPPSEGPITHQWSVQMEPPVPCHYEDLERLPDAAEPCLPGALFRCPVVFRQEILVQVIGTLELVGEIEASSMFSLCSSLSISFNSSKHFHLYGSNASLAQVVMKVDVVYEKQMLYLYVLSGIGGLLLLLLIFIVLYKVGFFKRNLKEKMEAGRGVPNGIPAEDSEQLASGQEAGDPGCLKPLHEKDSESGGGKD
# T1 sequence (P05107 23-769): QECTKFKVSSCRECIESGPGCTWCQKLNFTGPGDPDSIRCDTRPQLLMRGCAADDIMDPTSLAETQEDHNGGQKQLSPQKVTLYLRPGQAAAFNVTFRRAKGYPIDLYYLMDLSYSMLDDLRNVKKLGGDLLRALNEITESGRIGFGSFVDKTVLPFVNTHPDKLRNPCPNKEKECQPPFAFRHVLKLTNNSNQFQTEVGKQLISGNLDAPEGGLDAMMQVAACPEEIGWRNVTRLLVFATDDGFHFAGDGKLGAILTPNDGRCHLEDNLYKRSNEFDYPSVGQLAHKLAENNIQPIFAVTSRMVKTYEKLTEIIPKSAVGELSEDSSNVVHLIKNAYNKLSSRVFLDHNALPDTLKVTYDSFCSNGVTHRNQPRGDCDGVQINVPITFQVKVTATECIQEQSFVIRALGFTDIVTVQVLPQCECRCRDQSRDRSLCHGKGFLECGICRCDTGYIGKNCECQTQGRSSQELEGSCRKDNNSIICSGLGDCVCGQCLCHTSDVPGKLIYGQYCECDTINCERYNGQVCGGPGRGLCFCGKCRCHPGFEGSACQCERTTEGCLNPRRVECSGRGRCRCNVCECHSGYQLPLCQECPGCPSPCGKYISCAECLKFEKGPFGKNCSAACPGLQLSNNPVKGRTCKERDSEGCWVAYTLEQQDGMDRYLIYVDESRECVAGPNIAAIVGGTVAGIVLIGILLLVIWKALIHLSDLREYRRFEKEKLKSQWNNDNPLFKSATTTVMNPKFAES
# Method: (§1) For in vitro cell adhesion assays, compounds were dissolved in DMSO to make a series of stock solutions such that a 1:100 dilution in assay buffer would yield the desired final working concentrations in 1% DMSO (vehicle). Human VCAM-1 and ICAM-1 were purchased from R&D Systems (Minneapolis, MN). The Jurkat (VCAM-1 assays) and HSB (ICAM-1 assays) cell lines were obtained from American Type Culture Collection (Manassas, VA) and were maintained in recommended culture media.
# (§2) Assays were performed as previously described in 1. Vanderslice, P., Woodside, D. G., Caivano, A. R., Decker, E. R., Munsch, C. L., Sherwood, S. J., Lejeune, W. S., Miyamoto, Y. J., McIntyre, B. W., Tilton, R. G., and Dixon, R. A. (2010) Potent in vivo suppression of inflammation by selectively targeting the high affinity conformation of integrin alpha4beta1. Biochem Biophys Res Commun 400, 619-624; and 2. Vanderslice, P., Biediger, R. J., Woodside, D. G., Brown, W. S., Khounlo, S., Warier, N. D., Gundlach, C. W. t., Caivano, A. R., Bornmann, W. G., Maxwell, D. S., McIntyre, B. W., Willerson, J. T., and Dixon, R. A. (2013) Small molecule agonist of very late antigen-4 (VLA-4) integrin induces progenitor cell adhesion. J Biol Chem 288, 19414-19428. VCAM-1 or ICAM-1 ligand in 50 μL of 50 mM Tris-HCl (pH 7.4), 150 mM NaCl, (TBS) was added to wells of a 96-well plate and allowed to coat overnight at 4° C. To maximize the window to evaluate agonist activity, a sub-optimal coating concentration of ligand was used, typically between 0.5 and 5 μg/mL in 50 μL TBS for VCAM-1 and ICAM-1 respectively. This ligand concentration corresponded approximately to that which would yield≤ 5% adhesion as determined by dose-response curves. Briefly, 2×10^6 cells were labeled for 30 minutes with calcein-AM (Molecular Probes), washed, resuspended in binding buffer, and added to triplicate wells of ligand-coated plates (2×10^5 cells/well) that had been blocked with 2% BSA. After a 30-minute incubation at 37° C., the plates were washed 3 times with binding buffer, the adherent cells were lysed, and fluorescence was measured on a Tecan Safire^2 plate reader. The binding buffer was PBS with 1 mM MgCl2, 50% FBS for α4β1/VCAM-1 assays and PBS with 2 mM MgCl2, 5 mM EGTA, 50% FBS for αLβ2/ICAM-1 assays. EC50 is defined as the concentration of compound required to achieve 50% of the maximal response.
# THI0019 and THI0349 (average 11 μM) reported values here were obtained under the assay conditions reported herein and ran higher in the presence of serum than those values under different assay conditions. […] Relative to THI0019 (average 33 μM) as a control against CS1, the ratio of (compound activity/control) is as follows: Group I< or =1. Group II at least a ratio of >1 up to 2× that of THI0019 ran on the same plate; Group III is >2× of THI0019 but less than 5×; and Group IV>5× of THI0019 (with an upper limit of approximately 200 mM). In relation to LAD (Leukocyte Adhesion Deficiency), LFA-1 ratios are determined by dividing the relative fluorescence units (RFU) of each compound over that of the reference standard of THI0349, (RFU Compound/RFU of THI0349). Against LFA-1, the signal for THI0349 at 3 μM was compared to the claimed compounds at the same concentration.
# α4β1/VCAM-1 = molecular target: T2, α4β1/VCAM-1 (Homo sapiens, UniProt P05556+P13612); assay: Static cell adhesion assay, Jurkat cells on VCAM-1 (α4β1/VCAM-1); assay type: cell-based; conditions: ratio compound activity/control THI0019 (average 33 μM) run on the same plate
# T2 construct: The Jurkat (VCAM-1 assays) and HSB (ICAM-1 assays) cell lines were obtained from American Type Culture Collection; endogenous in cells; host or cells: Jurkat cells (ATCC)
# T2 sequence (P13612 34-1032): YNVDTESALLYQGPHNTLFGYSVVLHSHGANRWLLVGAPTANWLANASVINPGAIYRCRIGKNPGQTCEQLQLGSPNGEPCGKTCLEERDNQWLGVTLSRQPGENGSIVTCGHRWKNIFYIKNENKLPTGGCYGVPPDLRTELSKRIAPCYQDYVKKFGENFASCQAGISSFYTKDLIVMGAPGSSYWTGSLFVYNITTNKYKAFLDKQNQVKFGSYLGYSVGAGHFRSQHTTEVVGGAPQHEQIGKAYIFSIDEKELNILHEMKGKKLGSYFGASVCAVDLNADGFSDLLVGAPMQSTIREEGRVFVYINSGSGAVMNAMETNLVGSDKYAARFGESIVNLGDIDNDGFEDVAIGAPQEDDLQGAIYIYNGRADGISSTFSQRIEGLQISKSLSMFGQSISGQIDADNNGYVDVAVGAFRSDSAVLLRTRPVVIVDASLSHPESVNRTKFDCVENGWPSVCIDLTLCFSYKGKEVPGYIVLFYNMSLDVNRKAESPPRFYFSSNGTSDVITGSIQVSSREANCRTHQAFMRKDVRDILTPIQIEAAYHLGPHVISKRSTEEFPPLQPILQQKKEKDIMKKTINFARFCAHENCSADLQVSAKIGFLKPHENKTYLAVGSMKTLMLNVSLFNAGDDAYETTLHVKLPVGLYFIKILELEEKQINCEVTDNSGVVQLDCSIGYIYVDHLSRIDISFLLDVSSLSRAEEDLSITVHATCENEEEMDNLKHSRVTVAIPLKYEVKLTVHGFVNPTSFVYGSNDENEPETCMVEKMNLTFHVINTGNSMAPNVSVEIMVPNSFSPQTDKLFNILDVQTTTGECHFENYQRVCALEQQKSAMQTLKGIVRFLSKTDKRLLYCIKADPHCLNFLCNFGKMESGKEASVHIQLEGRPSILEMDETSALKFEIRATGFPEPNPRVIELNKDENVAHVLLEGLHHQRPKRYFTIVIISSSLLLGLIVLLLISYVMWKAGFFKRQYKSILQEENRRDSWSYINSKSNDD
# T2 sequence (P05556 21-798): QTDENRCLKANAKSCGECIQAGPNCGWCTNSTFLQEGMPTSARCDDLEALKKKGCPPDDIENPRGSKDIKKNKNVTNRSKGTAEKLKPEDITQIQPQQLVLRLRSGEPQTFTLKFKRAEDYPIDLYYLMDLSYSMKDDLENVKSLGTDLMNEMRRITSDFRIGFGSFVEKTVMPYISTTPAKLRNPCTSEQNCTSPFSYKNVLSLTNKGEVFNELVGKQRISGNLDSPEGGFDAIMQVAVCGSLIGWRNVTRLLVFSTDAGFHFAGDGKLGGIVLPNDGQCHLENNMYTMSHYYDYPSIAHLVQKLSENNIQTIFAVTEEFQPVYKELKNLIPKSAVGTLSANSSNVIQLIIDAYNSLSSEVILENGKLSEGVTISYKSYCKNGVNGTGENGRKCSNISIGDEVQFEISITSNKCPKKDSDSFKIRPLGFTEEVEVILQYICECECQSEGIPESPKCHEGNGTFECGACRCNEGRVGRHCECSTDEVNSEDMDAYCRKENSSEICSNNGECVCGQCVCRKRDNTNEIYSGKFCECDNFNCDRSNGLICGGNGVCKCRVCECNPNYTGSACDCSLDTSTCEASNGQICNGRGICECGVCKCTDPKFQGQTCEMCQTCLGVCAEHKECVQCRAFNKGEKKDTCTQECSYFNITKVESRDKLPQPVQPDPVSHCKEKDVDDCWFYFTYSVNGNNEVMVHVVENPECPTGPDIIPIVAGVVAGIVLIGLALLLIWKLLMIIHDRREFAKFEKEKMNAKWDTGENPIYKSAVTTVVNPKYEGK
# Method: as §1, §2
Compound,LAD Raw Fluorescence Units against LFA-1; Ratio of raw counts Compound/THI0349 (LFA-1),Average Ratio Compound to THI0019 (Activity against CS1) (α4β1/VCAM-1)
"O=C(CN1CCN(CC(=O)N(Cc2cccs2)Cc2cccs2)CC1)N(Cc1cccs1)Cc1cccs1 [2,2′-(piperazine-1,4-diyl)bis(N,N-bis(thiophen-2-ylmethyl)acetamide)]",0.4 fold response,Group II (Group II at least a ratio of >1 up to 2× that of THI0019 ran on the same plate)
"COc1ccc(CN(Cc2ccc(N(C)C)cc2)C(=O)OCCN2CC(=O)N(CCOC(=O)N(Cc3ccc(OC)cc3)Cc3ccc(N(C)C)cc3)CC2=O)cc1 [(2,5-dioxopiperazine-1,4-diyl)bis(ethane-2,1-diyl) bis(4-(dimethylamino)benzyl (4-methoxybenzyl)carbamate)]",9.9 fold increased response,Group I (Group I< or =1)
"COc1ccc(CN(Cc2ccc(OC)cc2)C(=O)CN2CCN(Cc3cccc(OC)c3)CC2=O)cc1 [N,N-bis(4-methoxybenzyl)-2-(4-(3-methoxybenzyl)-2-oxopiperazin-1-yl)acetamide]",1.1 fold increased response,Group IV (Group IV>5× of THI0019 (with an upper limit of approximately 200 mM))
COc1ccc(CN(Cc2ccc(OC)cc2)C(=O)CN2CCN(C(=O)OCc3ccccc3)CC2)cc1 [benzyl 4-(2-(bis(4-methoxybenzyl)amino)-2-oxoethyl)piperazine-1-carboxylate],3.3 fold increased response,Group II (Group II at least a ratio of >1 up to 2× that of THI0019 ran on the same plate)
O=C(CN1CCN(C(=O)OCc2ccccc2)CC1)N(Cc1ccc(O)cc1)Cc1ccc(O)cc1 [benzyl 4-(2-(bis(4-hydroxybenzyl)amino)-2-oxoethyl)piperazine-1-carboxylate],0.3 fold response,Group I (Group I< or =1)
"COc1ccc(CN(Cc2ccc(OC)cc2)C(=O)CN2CCN(C(=O)Cc3cccc(OC)c3)CC2=O)cc1 [N,N-bis(4-methoxybenzyl)-2-(4-(2-(3-methoxyphenyl)acetyl)-2-oxopiperazin-1-yl)acetamide]",0.5 fold response,Group III (Group III is >2× of THI0019 but less than 5×)
"COc1ccc(CN(CC(C)C)C(=O)CN2CCN(CC(=O)N(Cc3ccc(OC)cc3)CC(C)C)CC2)cc1 [2,2′-(piperazine-1,4-diyl)bis(N-isobutyl-N-(4-methoxybenzyl)acetamide)]",0.9 fold response,Group IV (Group IV>5× of THI0019 (with an upper limit of approximately 200 mM))
"COc1ccc(CN(Cc2ccc(OC)cc2)C(=O)CN2CCN(CC(=O)N(Cc3ccc(OC)cc3)Cc3ccc(OC)cc3)C(=O)C2)cc1 [2,2′-(2-oxopiperazine-1,4-diyl)bis(N,N-bis(4-methoxybenzyl)acetamide)]",5.9 fold increased response,Group I (Group I< or =1)
"COc1ccc(CN(CC(C)C)C(=O)CN2CC(=O)N(CC(=O)N(Cc3ccc(OC)cc3)CC(C)C)CC2=O)cc1 [2,2′-(2,5-dioxopiperazine-1,4-diyl)bis(N-isobutyl-N-(4-methoxybenzyl)acetamide)]",0.15 fold response,Group III (Group III is >2× of THI0019 but less than 5×)
"COc1cccc(CN(Cc2cccc(OC)c2)C(=O)OCCN2CC(=O)N(CCOC(=O)N(Cc3cccc(OC)c3)Cc3cccc(OC)c3)CC2=O)c1 [(2,5-dioxopiperazine-1,4-diyl)bis(ethane-2,1-diyl) bis(bis(3-methoxybenzyl)carbamate)]",3.4 fold increased response,Group I (Group I< or =1)
"COc1cccc(CN(Cc2ccc(N(C)C)cc2)C(=O)OCCN2CC(=O)N(CCOC(=O)N(Cc3ccc(N(C)C)cc3)Cc3cccc(OC)c3)CC2=O)c1 [(2,5-dioxopiperazine-1,4-diyl)bis(ethane-2,1-diyl) bis(4-(dimethylamino)benzyl (3-methoxybenzyl)carbamate)]",7.8 fold increased response,Group I (Group I< or =1)
"COc1ccc(CN(Cc2ccc(OC)cc2)C(=O)OCCN2CC(=O)N(CCOC(=O)N(Cc3ccc(OC)cc3)Cc3ccc(OC)cc3)CC2=O)cc1 [(2,5-dioxopiperazine-1,4-diyl)bis(ethane-2,1-diyl) bis(bis(4-methoxybenzyl)carbamate)]",7.8 fold increased response,Group I (Group I< or =1)
"COc1ccc(CN(CC(C)C)C(=O)CN2CCN(CC(=O)N(Cc3ccc(OC)cc3)CC(C)C)C(=O)C2)cc1 [2,2′-(2-oxopiperazine-1,4-diyl)bis(N-isobutyl-N-(4-methoxybenzyl)acetamide)]",0.19 fold response,Group III (Group III is >2× of THI0019 but less than 5×)
